Measurements from publication PMC11852804, “Conformational flexibility is a critical factor in designing broad-spectrum human norovirus protease inhibitors” (Journal of Virology, 2025).
Read-outs that look alike come from different tables or passages of the source.

Key:
[1] = biological target: T1, GII.4-Pro Sydney (Norovirus Hu/GII.4/Sydney/NSW0514/2012/AU, UniProt K4L8Z7, R1120A); test: biochemical; details: read-out: kinact/KI (M^-1s^-1)
Description: (§1) FRET protease assay, time-dependent inhibition on GII.4-Pro Sydney

[2] = biological target: T2, GII.3-Pro (Norovirus Hu/Texas/TCH04-577/2004/US, UniProt B2DD26); test: FRET protease assay, time-dependent inhibition; format: biochemical; details: covalent; GII FRET peptide substrate; pH 8.0, 37 °C, 10 mM DTT; corrected for substrate competition
T2 construct: mature protease cut from ORF1 polyprotein; tag cut with 3C protease when used

[3] = tested on: GII.4-Pro HOV
Description: FRET protease assay, time-dependent inhibition on GII.4-Pro HOV

[4] = biological target: GII.3-Pro (Norovirus Hu/Texas/TCH04-577/2004/US, UniProt B2DD26, R1120A); details: read-out: KI
[5] = biological target: T2, GII.3-Pro; test: FRET protease assay, time-dependent inhibition; format: biochemical
[6] = biological target: T3, GI.1-Pro (Norovirus Hu/1968/US, UniProt Q83883, R1212A); format: biochemical; details: covalent; tight-binding conditions, kchem approximation; GI.1 FRET peptide substrate; pH 8.0, 37 °C, 10 mM DTT; corrected for substrate competition
T3 construct: gene ORF1

[7] = biological target: T4, (Norovirus norwalkense, UniProt A9YYE3); test: FRET protease assay, time-dependent inhibition; format: biochemical
T4 construct: mature protease cut from ORF1 polyprotein; pET-46b(+) His-tag with thrombin site, E. coli XJb(DE3); tag cut with thrombin when used

[8] = biological target: T1, GII.4-Pro Sydney; details: read-out: KI
Description: as §1

[9] = tested on: T5, GII.4-Pro HOV; test: FRET protease assay, time-dependent inhibition; format: biochemical, Norovirus norwalkense; details: covalent; GII FRET peptide substrate; pH 8.0, 37 °C, 10 mM DTT; corrected for substrate competition
T5 construct: mature protease cut from ORF1 polyprotein; pET-46b(+) His-tag with thrombin site, E. coli XJb(DE3); tag cut with thrombin when used

[10] = biological target: T6, GII.4-Pro Sydney (Norovirus Hu/GII.4/Sydney/NSW0514/2012/AU, UniProt K4L8Z7); test: FRET protease assay, time-dependent inhibition; format: biochemical
T6 construct: mature protease cut from ORF1 polyprotein; tag cut with 3C protease when used

[11] = biological target: T7, GI.1-Pro (Norovirus Hu/1968/US, UniProt Q83883); test: FRET protease assay, time-dependent inhibition; format: biochemical
T7 construct: gene ORF1; mature protease cut from ORF1 polyprotein; pET-46b(+) His-tag with thrombin site, E. coli XJb(DE3); tag cut with thrombin when used
Description: FRET protease assay, time-dependent inhibition on GI.1-Pro

[12] = biological target: T6, GII.4-Pro Sydney; test: FRET protease assay, time-dependent inhibition; format: biochemical; details: covalent; GII FRET peptide substrate; pH 8.0, 37 °C, 10 mM DTT; corrected for substrate competition

With `CCOC(=O)/C=C/[C@H](C[C@@H]1CCNC1=O)NC(=O)[C@@H](CC(=O)[C@@H](NC(=O)c1cc(C)on1)C(C)C)Cc1ccc(F)cc1` [rupintrivir] the kinact/KI [1] was 4.53 ± 0.59 M⁻¹ s⁻¹, the KI (inactivation) [2] was 1.31 mM and the “kinact/KI” value [3] was 6.52 ± 0.77 M⁻¹ s⁻¹. The KI (inactivation) ([3]; read-out: KI) was 564 ± 513 µM, the KI (inactivation) [4] was 94 ± 38 µM and the kinact/KI [5] was 5.34 ± 0.52 M⁻¹ s⁻¹. The “kinact/KI” value [6] was 233.5 ± 8.8 M⁻¹ s⁻¹, the kinact/KI [7] was 5.78 ± 0.21 M⁻¹ s⁻¹ and the KI (inactivation) [8] was 438 ± 299 µM. It also gave a KI (inactivation) [9] of 457 ± 52 µM, a kinact/KI [10] of 3.73 ± 0.28 M⁻¹ s⁻¹ and a kinact/KI [11] of 294 ± 5.7 M⁻¹ s⁻¹. The KI (inactivation) [12] was 1.09 mM.
